For the assay, the target named is T1, HDAC8 (Homo sapiens, UniProt Q9BY41).
T1 construct: purchased enzyme (VinciBiochem)
T1 sequence (Q9BY41 1-377): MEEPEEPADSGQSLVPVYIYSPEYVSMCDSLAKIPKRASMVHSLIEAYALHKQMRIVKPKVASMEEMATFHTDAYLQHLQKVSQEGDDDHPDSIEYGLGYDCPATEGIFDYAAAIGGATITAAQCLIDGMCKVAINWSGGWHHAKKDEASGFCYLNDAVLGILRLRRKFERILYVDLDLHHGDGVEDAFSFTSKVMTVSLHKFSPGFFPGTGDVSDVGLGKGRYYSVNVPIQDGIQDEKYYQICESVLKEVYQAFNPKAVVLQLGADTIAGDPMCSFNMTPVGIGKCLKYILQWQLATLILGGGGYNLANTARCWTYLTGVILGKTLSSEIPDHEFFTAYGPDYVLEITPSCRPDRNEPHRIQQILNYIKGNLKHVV
Description: HDAC-Glo I/II bioluminogenic deacetylase assay. The assay is classed as biochemical. To be noted: read-out: HDAC8IC50 (μM) ^a. An excerpt:
HDAC-Glo I/II bioluminogenic deacetylase assay on HDAC8

SMILES strings stand for the structures. A value given as a limit tells only on which side of the number the result lay.

For `Cc1cc(OCC(=O)N2CCC(C(N)=O)CC2)c2c(C)c(Cc3ccccc3)c(=O)oc2c1` [CNP0217284], the IC50 is above 300 µM.

The values above are taken from PMC11591096, “Hit Identification and Functional Validation of Novel Dual Inhibitors of HDAC8 and Tubulin Identified by Combining Docking and Molecular Dynamics Simulations” (Antioxidants, 2024).
